From US9763445B2, “Safened herbicidal compositions comprising a pyridine carboxylic acid herbicide” (Dow AgroSciences, LLC, priority 2014, dated 2017)

Key:
pigweed (AMARE) = test: Postemergence greenhouse trial, % visual injury on pigweed; format: in vivo, Amaranthus retroflexus; details: Amaranthus retroflexus, post-emergence; alone, 35 g/ha; read-out: % visual injury, Ob
How it was run: (§1)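 Injury was scored visually (0 = none, 100 = complete kill) 20–22 d after track-sprayer application at 187 L/ha, compared with solvent-sprayed controls. Test plants at the 2–3 true leaf stage; herbicide (g ae/ha) plus cloquintocet-mexyl safener (g ai/ha) in crop-oil-containing spray; expected mixture response by Colby.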

velvetleaf (ABUTH) = test: Postemergence greenhouse trial, % visual injury on velvetleaf; format: in vivo, Abutilon theophrasti; details: alone, 35 g/ha
Description: (§2) Seeds of the desired test plant species were planted in Sun Gro MetroMix® 306 planting mixture, which typically has a pH of 6.0 to 6.8 and an organic matter content of about 30 percent, in plastic pots with a surface area of 103.2 square centimeters (cm^2). When required to ensure good germination and healthy plants, a fungicide treatment and/or other chemical or physical treatment was applied. The plants were grown for 7-36 days (d) in a greenhouse with an approximate 14-hour (h) photoperiod which was maintained at about 23° C. during the day and 22° C. during the night. Nutrients and water were added on a regular basis and supplemental lighting was provided with overhead metal halide 1000-Watt lamps as necessary. The plants were employed for testing when they reached the second or third true leaf stage.
(§3) Weighed amounts of technical material were dissolved in a volume of 97:3 volume per volume (v/v) acetone/dimethyl sulfoxide (DMSO) to stock solutions. […] The concentrated stock solutions were diluted with an aqueous mixture of 1.5% v/v of Agri-dex crop oil concentrate to provide the appropriate application rates. Compound requirements are based upon a 12 milliliter (mL) application volume at a rate of 187 liters per hectare (L/ha). Stocks solutions of the safeners were prepared following the same procedure. Spray solutions of the safeners and experimental compound mixtures were prepared by adding the stock solutions to the appropriate amount of dilution solution to form a 12 mL spray solution in two-way combinations. Formulated compounds were applied to the plant material with an overhead Mandel track sprayer equipped with 8002E nozzles calibrated to deliver 187 L/ha over an application area of 0.503 square meters (m^2) at a spray height of 18 inches (43 centimeters (cm)) above average plant canopy. Control plants were sprayed in the same manner with the solvent blank. All herbicide application (component a) rates are in g ae/ha and all safener (component b) rates are in g ai/ha.
(§4) The treated plants and control plants were placed in a greenhouse as described above and watered by sub-irrigation to prevent wash-off of the test compounds. After 20-22 d, the condition of the test plants as compared with that of the control plants was determined visually and scored on a scale of 0 to 100 percent where 0 corresponds to no injury and 100 corresponds to complete kill. The condition of the test plants was compared with that of the control plants as determined visually and scored on a scale of 0 to 100 percent, where 0 corresponds to no injury and 100 corresponds to complete kill. Colby's equation was used to determine the herbicidal effects expected from the mixtures.
(§5) The safener cloquintocet-mexyl was combined with compound 1, compound 2, compound 4, compound 5, and compound 6, and applied to corn/maize (ZEAMX) and spring wheat (TRZAS) and the phytotoxicity of the herbicidal compositions was measured. In addition, the efficacy of the herbicidal composition on velvetleaf (ABUTH, Abutilon theophrasti), pigweed (AMARE, Amaranthus retroflexus), winter rape (BRSNW, Brassica napus), lambsquarters (CHEAL, Chenopodium album), thistle (CIRAR, Cirsium arvense), nutsedge (CYPES, Cyperus esculentus), poinsettia (EPHHL, Euphorbia heterophylla), wild buckwheat (POLCO, Polygonum convolvulus), giant foxtail (SETFA, Setaria faberi), and chickweed (STEME, Stellaria media) was evaluated.
(§6) The safener cloquintocet-mexyl was combined with compound 1, compound 2, compound 3, compound 7, compound 8, compound 9, compound 10, compound 11, compound 12, compound 13, compound 14, compound 15, compound 16, compound 17, compound 18, compound 19, and compound 20, and applied to spring wheat (TRZAS), winter wheat (TRZAW), and spring barley (HORVS) and the phytotoxicity of the herbicidal compositions was measured. […]

giant foxtail (SETFA) = test: Postemergence greenhouse trial, % visual injury on giant foxtail; format: in vivo, Setaria faberi; details: alone, 35 g/ha
Description: as §2
(§7) Weighed amounts of technical material were dissolved in a volume of 97:3 volume per volume (v/v) acetone/dimethyl sulfoxide (DMSO) to stock solutions. […] The concentrated stock solutions were diluted with an aqueous mixture of 1.5% v/v of Agri-dex crop oil concentrate to provide the appropriate application rates. Compound requirements are based upon a 12 milliliter (mL) application volume at a rate of 187 liters per hectare (L/ha). […]
as §4, with “Colby's equation was used to determine the herbicidal effects expected from the mixtures.” left out
The safener cloquintocet-mexyl was combined with compound 1, compound 2, compound 4, compound 5, and compound 6, and applied to corn/maize (ZEAMX) and spring wheat (TRZAS) and the phytotoxicity of the herbicidal compositions was measured. […]

lambsquarters (CHEAL) = test: Postemergence greenhouse trial, % visual injury on lambsquarters; format: in vivo, Chenopodium album; details: Chenopodium album, post-emergence; alone, 35 g/ha; read-out: % visual injury, Ob
Description: as §2, §3, §4, §5, §6

corn/maize (ZEAMX) = test: Postemergence greenhouse trial, % visual injury on corn/maize; format: in vivo, Zea mays; details: alone, 35 g/ha
Description: as §2, §3, §4
as §5, with “evaluated. […]” for “evaluated.”

thistle (CIRAR) = test: Postemergence greenhouse trial, % visual injury on thistle; format: in vivo, Cirsium arvense; details: Cirsium arvense, post-emergence; alone, 35 g/ha; read-out: % visual injury, Ob
Description: as §2, §3, §4
as §5, with “evaluated. […]” for “evaluated.”

spring wheat (TRZAS) = test: Postemergence greenhouse trial, % visual injury on spring wheat; format: in vivo, Triticum aestivum; details: alone, 35 g/ha
How it was run: as §1

wild buckwheat (POLCO) = test: Postemergence greenhouse trial, % visual injury on wild buckwheat; format: in vivo, Polygonum convolvulus; details: alone, 35 g/ha
Description: as §2, §3, §4, §5, §6

winter rape (BRSNW) = test: Postemergence greenhouse trial, % visual injury on winter rape; format: in vivo, Brassica napus; details: Brassica napus, post-emergence; alone, 35 g/ha; read-out: % visual injury, Ob
How it was run: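 Visual injury, 0 (none) to 100 (complete kill), rated 20-22 d after overhead track-sprayer application at 187 L/ha; Colby's equation gave expected mixture responses. Herbicide (g ae/ha) and cloquintocet-mexyl safener (g ai/ha) diluted in aqueous 1.5% v/v Agri-dex, applied to weeds at 2–3 true leaves.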

poinsettia (EPHHL) = test: Postemergence greenhouse trial, % visual injury on poinsettia; format: in vivo, Euphorbia heterophylla; details: alone, 35 g/ha
Description: as §2
as §7, with “(L/ha). Stocks solutions of the safeners were prepared following the same procedure.” for “(L/ha).”
as §4, with “Colby's equation was used to determine the herbicidal effects expected from the mixtures.” left out
as §5, with “evaluated. […]” for “evaluated.”

chickweed (STEME) = test: Postemergence greenhouse trial, % visual injury on chickweed; format: in vivo, Stellaria media; details: alone, 35 g/ha
Description: as §2, §3, §4
as §5, with “evaluated. […]” for “evaluated.”

COC(=O)c1nc(-c2ccc3ccn(C(=O)C(C)(C)C)c3c2F)c(F)c(N)c1Cl [compound 5]
pest or weed control at 35 g/ha (pigweed (AMARE)): 100%
% visual injury, Ob (velvetleaf (ABUTH)): 80%
% visual injury, Ob (giant foxtail (SETFA)): 60%
pest or weed control at 35 g/ha (lambsquarters (CHEAL)): 100%
% visual injury, Ob (corn/maize (ZEAMX)): 35%
pest or weed control at 35 g/ha (thistle (CIRAR)): 80%
% visual injury, Ob (spring wheat (TRZAS)): 45%
% visual injury, Ob (wild buckwheat (POLCO)): 100%
plant injury at 35 g/ha (winter rape (BRSNW)): 97%
% visual injury, Ob (poinsettia (EPHHL)): 100%
% visual injury, Ob (chickweed (STEME)): 85%
